Assay type in all cases: functional, organism-based
The subject of test [1] is Plasmodium falciparum. The test is described as follows: Antiplasmodial activity against Plasmodium falciparum Tm90-C2B infected in human Erythrocyte measured after 72 hrs by SYBR green fluorescence dye based microplate reader analysis.
Test [2] concerns Plasmodium falciparum. The test is described as follows: Antiplasmodial activity against Plasmodium falciparum D6 infected in human Erythrocyte measured after 72 hrs by SYBR green fluorescence dye based microplate reader analysis.
Test [3] relates to Plasmodium falciparum. As to the kind of experiment: Antiplasmodial activity against Plasmodium falciparum Dd2 infected in human Erythrocyte measured after 72 hrs by SYBR green fluorescence dye based microplate reader analysis.
The test system of test [4] is Plasmodium falciparum. The test is described as follows: Antiplasmodial activity against chloroquine-sensitive Plasmodium falciparum 3D7 infected in human erythrocyte incubated for 72 hrs by SYBR green I staining based fluorescence assay. The following applies: 3D7, Erythrocyte.
Test [5] relates to Plasmodium falciparum. As to the kind of experiment: Antimalarial activity against blood stage chloroquine-sensitive Plasmodium falciparum 3D7 infected in erythrocytes assessed as reduction in parasite growth preincubated for 72 hrs followed by addition of [3H]Hypoxanthine and measured after 24 hrs by liquid scintillation counting method. The following applies: 3D7, Erythrocyte.

The subject of test [6] is Plasmodium falciparum. The test is described as follows: Antimalarial activity against blood stage chloroquine-sensitive Plasmodium falciparum NF54-R infected in erythrocytes assessed as reduction in parasite growth preincubated for 72 hrs followed by addition of [3H]Hypoxanthine and measured after 24 hrs by liquid scintillation counting method. The following applies: Erythrocyte.

For a further test, the system named is Plasmodium yoelii yoelii. The test is described as follows: Antimalarial activity against hepatic stage Plasmodium yoelii yoelii 265 BY for 48 hrs with media renew every 24 hrs.

Values after ≈ are worked out from the molar mass of the structure shown.

Consider `CCCCCCCc1c(C)[nH]c2cc(F)cc(F)c2c1=O`, for which the IC50 in the test with Plasmodium falciparum [1] worked out at 81 nM; in the test on Plasmodium falciparum [2], 0.1 nM; in the test with Plasmodium falciparum [3] it was 1 nM.

As for `CCCCCCCc1c(C)[nH]c2cc(O)ccc2c1=O`, the IC50 was determined as 824 nM in the test on Plasmodium falciparum [1], 759 nM in the test on Plasmodium falciparum [2] and 805 nM with Plasmodium falciparum [3].

Regarding `CCCCCCCc1c(C)[nH]c2cc(C#N)ccc2c1=O`, the concentration for half-maximal inhibition (IC50) with Plasmodium falciparum [2] is 18 nM; with Plasmodium falciparum [3], 45 nM.

As for `C=CC1CC2CCC1CC2[C@H](OC(=O)[C@H](Cc1ccccc1)NC(=O)C1=CN2C3C(=C(N4CCN(C)CC4)C(F)=CC3C1=O)OC[C@@H]2C)c1cccc2ccc(OC)cc12` (stereo not given in full), half-maximal inhibition in the test with Plasmodium falciparum [4] (IC50) was put at 48 nM.

Consider `COc1ccc2c(=O)c(CCCCCCCCCCC(F)(F)F)c(C)[nH]c2c1`, for which the IC50 was 5 nM with Plasmodium falciparum [1], 1 nM in the test with Plasmodium falciparum [2] and 1 nM with Plasmodium falciparum [3].

On to `CCCCc1c(C)[nH]c2cc(OC)ccc2c1=O`, for which the figures for the IC50 with Plasmodium falciparum [1], in the test with Plasmodium falciparum [2] and in the test with Plasmodium falciparum [3] were 92 nM, 29 nM and 29 nM, respectively.

For the compound `C=CC1CC2CCC1CC2[C@H](OC(=O)[C@H](Cc1ccccc1)NC(=O)C1=CN(CC)C2C=C3OCOC3=CC2C1=O)c1cccc2ccc(OC)cc12` (stereo not given in full), the 50% inhibitory concentration (IC50) in the test with Plasmodium falciparum [4] is 115 nM.

Turning to `C=CC1CC2CCC1CC2[C@H](OC(=O)[C@H](C)NC(=O)C1=CN(CC)C2C=C3OCOC3=CC2C1=O)c1cccc2ccc(OC)cc12` (stereo not given in full), in the test with Plasmodium falciparum [4], the IC50 is 29 nM.

In the test on Plasmodium falciparum [4], `C=CC1CC2CCC1CC2[C@H](OC(=O)CNC(=O)C1=CN(CC)C2C=C(C)C=CC2C1=O)c1cccc2ccc(OC)cc12` (stereo not given in full) showed a concentration for half-maximal inhibition (IC50) of 46 nM.

`CCCCCCCc1c(C)nc2cc(OC)ccc2c1O`: the results for the IC50 in the test with Plasmodium falciparum [1], with Plasmodium falciparum [2] and in the test with Plasmodium falciparum [3] were 11 nM, 4 nM and 3 nM, respectively.

For `CCCCCc1c(C)[nH]c2cc(OC)ccc2c1=O`, the IC50 with Plasmodium falciparum [1] came to 52 nM; in the test on Plasmodium falciparum [2], 8 nM; in the test on Plasmodium falciparum [3] it was 12 nM.

`CCCCCCCc1c(C)[nH]c2cc(Cl)ccc2c1=O`: the IC50 worked out at 64 nM with Plasmodium falciparum [1], 6 nM in the test with Plasmodium falciparum [2] and 2 nM in the test with Plasmodium falciparum [3].

On to `C=CC1CC2CCC1CC2[C@H](OC(=O)[C@@H](NC(=O)C1=CN(C2CC2)C2C=C(N3CCN(CC)CC3)C(F)=CC2C1=O)C(C)CC)c1cccc2ccc(OC)cc12` (stereo not given in full), for which, in the test with Plasmodium falciparum [4], the concentration for half-maximal inhibition (IC50) worked out at 207 nM.

`C=CC1CC2CCC1CC2[C@H](OC(=O)CNC(=O)C1=CN(C2CC2)C2C=C(N3CCN(CC)CC3)C(F)=CC2C1=O)c1cccc2ccc(OC)cc12` (stereo not given in full) displayed an IC50 in the test with Plasmodium falciparum [4] of 28 nM.

Turning to `CCCCCCCc1c(C)[nH]c2cc(OC(F)(F)F)ccc2c1=O`, the half-maximal inhibitory concentration (IC50) in the test with Plasmodium falciparum [1] came to 102 nM; with Plasmodium falciparum [2], 86 nM; in the test on Plasmodium falciparum [3] it was 86 nM.

Turning to `Nc1ccc2c(=O)c3ccc(OCCCCCC(F)(F)F)cc3[nH]c2c1`, the IC50 with Plasmodium falciparum [1] was 78 nM; in the test on Plasmodium falciparum [2] it was 0.02 nM; with Plasmodium falciparum [3], 0.02 nM.

On to `C=CC1CC2CCC1CC2[C@H](OC(=O)[C@H](C)NC(=O)C1=CN2C3C(=C(N4CCN(C)CC4)C(F)=CC3C1=O)OC[C@@H]2C)c1cccc2ccc(OC)cc12` (stereo not given in full), for which the IC50 with Plasmodium falciparum [4] came out at 33 nM.

In the case of `C=CC1CC2CCC1CC2[C@H](OC(=O)CNC(=O)C1=CN2C3C(=C(N4CCN(C)CC4)C(F)=CC3C1=O)OC[C@@H]2C)c1cccc2ccc(OC)cc12` (stereo not given in full), inhibition in the test on Plasmodium falciparum [4] was half-maximal at 12 nM (IC50).

Turning to `C=CC1CC2CCC1CC2[C@H](OC(=O)[C@@H](NC(=O)C1=CN(CC)C2C=C(C)C=CC2C1=O)C(C)C)c1cccc2ccc(OC)cc12` (stereo not given in full), in the test on Plasmodium falciparum [4], the half-maximal inhibitory concentration (IC50) was determined as 16 nM.

In the test with Plasmodium falciparum [4], `C=CC1CC2CCC1CC2[C@H](OC(=O)[C@@H](NC(=O)C1=CN(CC)C2C=C3OCOC3=CC2C1=O)C(C)C)c1cccc2ccc(OC)cc12` (stereo not given in full) came in with a half-maximal inhibitory concentration (IC50) of 183 nM.

Turning to `CCn1nc(C(=O)O)c(=O)c2cc3c(cc21)OCO3` [CINOXACIN], the IC50 in the test on Plasmodium falciparum [5] is 118 µg/mL (≈ 451 µM); with Plasmodium falciparum [6], 28.5 µg/mL (≈ 109 µM); in the test on Plasmodium yoelii yoelii, 36.3 µg/mL (≈ 138 µM).

In the case of `NC1CCN(c2c(F)cc3c(=O)c(C(=O)O)cn(C4CC4)c3c2Cl)C1` (stereo not given) [CLINAFLOXACIN], the IC50 in the test on Plasmodium falciparum [5] was 13.7 µg/mL (≈ 37.5 µM); in the test on Plasmodium falciparum [6], 3.3 µg/mL (≈ 9.02 µM); in the test with Plasmodium yoelii yoelii, 90.2 µg/mL (≈ 247 µM).

As to `CN1CCN(c2c(F)cc3c(=O)c(C(=O)O)cn(CCF)c3c2F)CC1` [FLEROXACIN], the concentration for half-maximal inhibition (IC50) in the test on Plasmodium falciparum [5] was 34.6 µg/mL (≈ 93.7 µM); in the test with Plasmodium falciparum [6], 12.9 µg/mL (≈ 34.9 µM); with Plasmodium yoelii yoelii it was > 100 µg/mL.

Consider `CC1CCc2cc(F)cc3c(=O)c(C(=O)O)cn1c23` (stereo not given) [FLUMEQUINE], for which the IC50 in the test on Plasmodium falciparum [5] was 38.3 µg/mL (≈ 147 µM); in the test with Plasmodium falciparum [6] it was 14.1 µg/mL (≈ 54 µM); in the test with Plasmodium yoelii yoelii, > 100 µg/mL.

With `COc1c(N2CCNC(C)C2)c(F)cc2c(=O)c(C(=O)O)cn(C3CC3)c12` (stereo not given) [GATIFLOXACIN], the IC50 was 34.8 µg/mL (≈ 92.7 µM) in the test with Plasmodium falciparum [5], 10.9 µg/mL (≈ 29 µM) in the test with Plasmodium falciparum [6] and > 100 µg/mL in the test with Plasmodium yoelii yoelii.

For the compound `Cc1c(F)c(N2CCNC(C)C2)cc2c1c(=O)c(C(=O)O)cn2C1CC1` (stereo not given) [GREPAFLOXACIN], the IC50 in the test with Plasmodium falciparum [5] is 4.5 µg/mL (≈ 12.5 µM); in the test with Plasmodium falciparum [6], 3.1 µg/mL (≈ 8.63 µM); in the test with Plasmodium yoelii yoelii it was 4.4 µg/mL (≈ 12.2 µM).

With `CCn1cc(C(=O)O)c(=O)c2cc(F)c(-n3cccc3)cc21` [IRLOXACIN], the IC50 is 49.4 µg/mL (≈ 165 µM) with Plasmodium falciparum [5], 10.5 µg/mL (≈ 35 µM) in the test with Plasmodium falciparum [6] and > 100 µg/mL in the test on Plasmodium yoelii yoelii.

As for `C[C@H]1COc2c(N3CCN(C)CC3)c(F)cc3c(=O)c(C(=O)O)cn1c23.C[C@H]1COc2c(N3CCN(C)CC3)c(F)cc3c(=O)c(C(=O)O)cn1c23.O` [LEVOFLOXACIN], the IC50 is 112 µg/mL in the test on Plasmodium falciparum [5], 40.3 µg/mL in the test on Plasmodium falciparum [6], > 20000 nM in the test on Plasmodium falciparum [4] and > 100 µg/mL with Plasmodium yoelii yoelii.

In the case of `CN1CCN(c2c(F)cc3c(=O)c(C(=O)O)cn4c3c2OCN4C)CC1` [MARBOFLOXACIN], the IC50 was 30.8 µg/mL (≈ 85 µM) with Plasmodium falciparum [5], 21.6 µg/mL (≈ 59.6 µM) with Plasmodium falciparum [6] and > 100 µg/mL in the test on Plasmodium yoelii yoelii.

`COc1c(N2C[C@@H]3CCCN[C@@H]3C2)c(F)cc2c(=O)c(C(=O)O)cn(C3CC3)c12` [MOXIFLOXACIN]: the half-maximal inhibitory concentration (IC50) in the test on Plasmodium falciparum [5] was 44.8 µg/mL (≈ 112 µM); with Plasmodium falciparum [6], 18 µg/mL (≈ 44.8 µM); in the test on Plasmodium yoelii yoelii, > 100 µg/mL.

Regarding `CCn1cc(C(=O)O)c(=O)c2ccc(C)nc21` [NALIDIXIC ACID], the IC50 in the test on Plasmodium falciparum [5] is 117 µg/mL (≈ 502 µM); in the test with Plasmodium falciparum [6], 59.1 µg/mL (≈ 254 µM); in the test with Plasmodium falciparum [4], > 20000 nM; in the test on Plasmodium yoelii yoelii, > 100 µg/mL.

As for `CCn1cc(C(=O)O)c(=O)c2cc3c(cc21)OCO3` [OXOLINIC ACID], the IC50 in the test with Plasmodium falciparum [5] is 130 µg/mL (≈ 496 µM); in the test with Plasmodium falciparum [6], 42.2 µg/mL (≈ 162 µM); in the test on Plasmodium falciparum [4], > 10000 nM; in the test on Plasmodium yoelii yoelii it was > 100 µg/mL.

`CCn1cc(C(=O)O)c(=O)c2cnc(N3CCNCC3)nc21` [PIPEMIDIC ACID]: the results for the concentration for half-maximal inhibition (IC50) in the test on Plasmodium falciparum [5], with Plasmodium falciparum [6] and with Plasmodium yoelii yoelii were 40.9 µg/mL (≈ 135 µM), 10.5 µg/mL (≈ 34.6 µM) and > 100 µg/mL, respectively.

As to `CCn1cc(C(=O)O)c(=O)c2cnc(N3CCCC3)nc21` [PIROMIDIC ACID], the half-maximal inhibitory concentration (IC50) in the test on Plasmodium falciparum [5] amounted to 41.4 µg/mL (≈ 144 µM); with Plasmodium falciparum [6], 14.4 µg/mL (≈ 49.9 µM); in the test on Plasmodium yoelii yoelii it was 21.6 µg/mL (≈ 74.9 µM).

On to `CCn1cc(C(=O)O)c(=O)c2ccc(-c3ccncc3)cc21` [ROSOXACIN], for which the IC50 is 87.9 µg/mL (≈ 299 µM) in the test with Plasmodium falciparum [5] and 10.6 µg/mL (≈ 36 µM) in the test on Plasmodium falciparum [6].

Take `CN1CCN(c2c(F)cc3c(=O)c(C(=O)O)cn4c3c2SCC4)CC1` [RUFLOXACIN]: the IC50 in the test with Plasmodium falciparum [5] was 81.9 µg/mL (≈ 225 µM); in the test on Plasmodium falciparum [6] it was 30.1 µg/mL (≈ 82.8 µM); in the test on Plasmodium yoelii yoelii it was 47.8 µg/mL (≈ 132 µM).

For the compound `C[C@@H]1CN(c2c(F)c(N)c3c(=O)c(C(=O)O)cn(C4CC4)c3c2F)C[C@H](C)N1` [SPARFLOXACIN], the values for the IC50 in the test on Plasmodium falciparum [5], in the test with Plasmodium falciparum [6] and with Plasmodium yoelii yoelii were 143 µg/mL (≈ 364 µM), 73.9 µg/mL (≈ 188 µM) and 53 µg/mL (≈ 135 µM), respectively.

On to `CC1CN(c2cc3c(cc2F)c(=O)c(C(=O)O)cn3-c2ccc(F)cc2F)CCN1` (stereo not given) [TEMAFLOXACIN], for which the values for the IC50 in the test with Plasmodium falciparum [5], in the test on Plasmodium falciparum [6] and in the test with Plasmodium yoelii yoelii were 34.9 µg/mL (≈ 83.6 µM), 14.1 µg/mL (≈ 33.8 µM) and 72.2 µg/mL (≈ 173 µM), respectively.

The IC50 is the concentration that gives 50% inhibition.
